Test results as given in PubChem BioAssay AID686932 (Sanford-Burnham Center for Chemical Genomics, 2013).
Several values for one entry are separate records, joined by “and”; a condition that tells them apart may be missing. Equal entries are not always repeated. Activity calls are given as the source filed them.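 How the source made its calls: active means IC50 against MMP-2 at or below 100 µM; inactive means the rest.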

Target: 72 kDa type IV collagenase (Homo sapiens) (UniProt P08253)
Assay: MMP-2 inhibition counter-screen for RPN11 hits, SAR follow-up, counter-screen for RPN11 inhibitor project, biochemical, fluorescence (AID 686932)
Settings: recombinant MMP-2, FRET peptide cleavage fluorescence

Chain of 72 kDa type IV collagenase (Homo sapiens) (P08253 whole entry, looked up): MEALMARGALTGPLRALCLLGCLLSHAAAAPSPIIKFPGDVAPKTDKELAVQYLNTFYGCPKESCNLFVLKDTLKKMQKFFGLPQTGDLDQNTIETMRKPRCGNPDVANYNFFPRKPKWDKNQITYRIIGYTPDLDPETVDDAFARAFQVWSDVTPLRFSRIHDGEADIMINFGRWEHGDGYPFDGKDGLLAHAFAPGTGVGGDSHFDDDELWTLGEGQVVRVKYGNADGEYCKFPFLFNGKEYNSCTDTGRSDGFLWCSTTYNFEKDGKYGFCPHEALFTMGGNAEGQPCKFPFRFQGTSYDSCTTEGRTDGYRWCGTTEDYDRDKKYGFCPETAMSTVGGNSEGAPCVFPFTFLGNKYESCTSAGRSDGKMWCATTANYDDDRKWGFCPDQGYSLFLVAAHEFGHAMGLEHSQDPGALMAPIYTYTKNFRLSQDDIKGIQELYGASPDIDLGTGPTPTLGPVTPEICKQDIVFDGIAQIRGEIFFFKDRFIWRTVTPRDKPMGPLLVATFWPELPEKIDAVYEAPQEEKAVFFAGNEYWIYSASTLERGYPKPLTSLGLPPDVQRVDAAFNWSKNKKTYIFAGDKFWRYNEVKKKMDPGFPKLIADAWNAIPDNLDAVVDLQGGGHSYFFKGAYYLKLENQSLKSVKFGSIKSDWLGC

SMILES | IC50
O=C(Sc1cccc2cccnc12)c1ccc([N+](=O)[O-])cc1 | > 99 µM (inactive)
COC(=O)[C@H](C)NC(=O)c1ccnc2c(SSc3cccc4c(C(=O)N[C@@H](C)C(=O)OC)ccnc34)cccc12 | > 99 µM (inactive)
Cc1cccc(C(=O)Sc2cccc3cccnc23)c1 | 38.5 µM
O=C(Sc1cccc2cccnc12)c1ccccc1OC(F)(F)F | > 99 µM (inactive)
O=C(Sc1cccc2cccnc12)c1ccc(F)cc1 | > 99 µM (inactive)
O=C(Sc1cccc2cccnc12)c1cccc(C(F)(F)F)c1 | > 99 µM (inactive)
COC(=O)[C@@H]1CCCN1C(=O)c1cnc2c(SSc3cccc4cc(C(=O)N5CCC[C@H]5C(=O)OC)cnc34)cccc2c1 | > 99 µM (inactive)
O=C(Sc1cccc2cccnc12)c1cccc2ccccc12 | 29.3 µM
C[C@@H](C(=O)O)N(C)C(=O)c1cnc2c(SSc3cccc4cc(C(=O)N(C)[C@@H](C)C(=O)O)cnc34)cccc2c1 | > 99 µM (inactive)
N#Cc1cccc(C(=O)Sc2cccc3cccnc23)c1 | > 99 µM (inactive)
O=C(O)c1cnc2c(SSc3cccc4cc(C(=O)O)cnc34)cccc2c1 | > 99 µM (inactive)
CC(C)C[C@H](NC(=O)c1cnc2c(SSc3cccc4cc(C(=O)N[C@@H](CC(C)C)C(=O)O)cnc34)cccc2c1)C(=O)O | 9.21 µM
CC(C)[C@H](NC(=O)c1cnc2c(SSc3cccc4cc(C(=O)N[C@H](C(=O)O)C(C)C)cnc34)cccc2c1)C(=O)O | > 99 µM (inactive)
COc1ccccc1C(=O)Sc1cccc2cccnc12 | > 99 µM (inactive)
COC(=O)c1cnc2c(SSc3cccc4cc(C(=O)OC)cnc34)cccc2c1 | 24 µM
O=C(Sc1cccc2cccnc12)c1ccc2c(c1)OCO2 | > 99 µM (inactive)
O=C(Sc1cccc2cccnc12)c1ccccc1Br | > 99 µM (inactive)
Cc1ccccc1C(=O)Sc1cccc2cccnc12 | > 99 µM (inactive)
O=C(Sc1cccc2cccnc12)c1ccccc1F | > 99 µM (inactive)
CC(C)(C)OC(=O)CCNC(=O)c1cnc2c(SSc3cccc4cc(C(=O)NCCC(=O)OC(C)(C)C)cnc34)cccc2c1 | > 99 µM (inactive)
CCOc1ccccc1C(=O)Sc1cccc2cccnc12 | 17 µM and > 99 µM (inactive)
COc1ccc(C(=O)Sc2cccc3cccnc23)cc1 | 16.2 µM
Cc1ccc(C(=O)Sc2cccc3cccnc23)cc1 | > 99 µM (inactive)
COC(=O)C[C@H](NC(=O)c1cnc2c(SSc3cccc4cc(C(=O)N[C@@H](CC(=O)OC)C(=O)OC)cnc34)cccc2c1)C(=O)OC | > 99 µM (inactive)

The remaining lines, values ahead:

IC50 | SMILES
20.2 µM | CC[C@@H](C)[C@H](NC(=O)c1cnc2c(SSc3cccc4cc(C(=O)N[C@H](C(=O)O)[C@H](C)CC)cnc34)cccc2c1)C(=O)O
inactive | O=C(Sc1cccc2cccnc12)c1ccccc1[N+](=O)[O-]
> 99 µM (inactive) | COC(=O)[C@H](CO)NC(=O)c1cnc2c(SSc3cccc4cc(C(=O)N[C@@H](CO)C(=O)OC)cnc34)cccc2c1
> 99 µM (inactive) | COC(=O)[C@H](C)NC(=O)c1cnc2c(SSc3cccc4cc(C(=O)N[C@@H](C)C(=O)OC)cnc34)cccc2c1
7.06 µM | O=C(Sc1cccc2cccnc12)c1ccccc1I
> 99 µM (inactive) | COC(=O)[C@H](C)N(C)C(=O)c1cnc2c(SSc3cccc4cc(C(=O)N(C)[C@@H](C)C(=O)OC)cnc34)cccc2c1
> 99 µM (inactive) | COc1ccc(C(=O)Sc2cccc3cccnc23)cc1F
> 99 µM (inactive) | COC(=O)[C@@H](NC(=O)c1cnc2c(SSc3cccc4cc(C(=O)N[C@H](C(=O)OC)C(C)C)cnc34)cccc2c1)C(C)C
> 99 µM (inactive) | COC(=O)[C@H](CC(C)C)NC(=O)c1cnc2c(SSc3cccc4cc(C(=O)N[C@@H](CC(C)C)C(=O)OC)cnc34)cccc2c1
> 99 µM (inactive) | CC(C)Cc1ccc(C(=O)Sc2cccc3cccnc23)cc1
20.5 µM | O=C(Sc1cccc2cccnc12)C1CCCCC1
9.07 µM | O=C(Sc1cccc2cccnc12)c1ccc(F)cc1F
> 99 µM (inactive) | CC[C@@H](C)[C@H](NC(=O)c1cnc2c(SSc3cccc4cc(C(=O)N[C@H](C(=O)OC)[C@@H](C)CC)cnc34)cccc2c1)C(=O)OC
> 99 µM (inactive) | COc1cccc(C(=O)Sc2cccc3cccnc23)c1
> 99 µM (inactive) | O=C(Sc1cccc2cccnc12)c1cccc(Cl)c1
> 99 µM (inactive) | O=C(Sc1cccc2cccnc12)c1ccc(C(F)(F)F)cc1
> 99 µM (inactive) | O=C(Sc1cccc2cccnc12)c1ccccc1Cl
> 99 µM (inactive) | O=C(Sc1cccc2cccnc12)c1ccc(F)c(F)c1
3.38 µM | N#Cc1ccc(C(=O)Sc2cccc3cccnc23)cc1
8.92 µM | O=C(Sc1cccc2cccnc12)c1c(Cl)cccc1Cl
16.3 µM | O=C(O)[C@@H]1CCCN1C(=O)c1cnc2c(SSc3cccc4cc(C(=O)N5CCC[C@H]5C(=O)O)cnc34)cccc2c1
7.85 µM | CCCc1ccc(C(=O)Sc2cccc3cccnc23)cc1
21.8 µM | O=C(Sc1cccc2cccnc12)c1ccccc1
> 99 µM (inactive) | COc1ccc(C(=O)Sc2cccc3cccnc23)cc1OC
